Test results taken from paper doi:10.1101/2025.02.17.638454, “Synergistic RAS-MAPK and AKT Activation in MYC-Driven Tumors via Adjacent PVT1 Rearrangements” (bioRxiv, 2025).
No end group written: not given here.

What was measured:
[1] = tested on: phospho-MEK1/2, phospho-ERK1/2, phospho-p90RSK (RAS/MAPK pathway); test: Western blot of RAS/MAPK effectors in D458; type: cell-based
Description: (§1) For whole-cell lysate, the cell pellet was resuspended in RIPA buffer (Cell Signaling Technologies, Danvers, MA) supplemented with a protease inhibitor cocktail (Cell Signaling Technologies) and incubated on ice for 20 minutes. The lysate was then centrifuged at 14,000 revolutions/minute for 10 minutes at 4°C, and the supernatant was harvested. Protein concentration was quantified by BCA Protein Assay Kit (Thermo Fisher Scientific) as per kit protocol. Next, 20 μg of whole-cell lysate was electrophoresed on a 4%–20% gradient polyacrylamide gel with SDS (Bio-Rad, Hercules, CA) and electroblotted onto polyvinylidene difluoride membranes (Bio-Rad). Membranes were blocked in Tris-buffered saline with 5% nonfat milk and 0.1% Tween and probed with antibodies. Bound proteins were detected with horseradish-peroxidase–conjugated secondary antibodies (Cell Signaling Technologies) and SuperSignal West Femto (Thermo Fisher Scientific). […]
(§2) The HNB ORF and eGFP (control) were cloned in an inducible lentivirus expression, TRE-gateway plasmid (pLIX_403, Addgene, #41395). […] The protein lysates were collected and quantified using the previously described protocol. […] Bound proteins were detected with horseradish-peroxidase–conjugated secondary antibodies (Cell Signaling Technologies) and SuperSignal West Femto (Thermo Fisher Scientific). […]

[2] = tested on: phospho-MEK1/2, phospho-ERK1/2, phospho-p90RSK (RAS/MAPK pathway); test: Western blot of RAS/MAPK effectors in NCI-H1792; type: cell-based; details: NCI-H1792 (mutant KRAS^G12C), doxycycline-induced HNB, 1 μg/mL Dox 48 h
Description: as §1, §2

recombinant KRAS protein = target: T1, recombinant KRAS protein (Homo sapiens, UniProt P01116); test: Isothermal titration calorimetry of HNB into recombinant KRAS; type: binding; details: ITC, pH 8.0, 25°C, N 1 (fixed)
T1 construct: purchased Abcam ab156968
T1 sequence (P01116 1-188 isoform P01116-2): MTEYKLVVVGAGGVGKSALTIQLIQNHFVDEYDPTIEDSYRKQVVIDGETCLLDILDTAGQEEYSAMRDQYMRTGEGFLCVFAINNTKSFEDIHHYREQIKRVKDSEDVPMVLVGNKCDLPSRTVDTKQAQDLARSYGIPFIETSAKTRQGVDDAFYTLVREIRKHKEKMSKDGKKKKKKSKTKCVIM
Description: (§3) Isothermal titration calorimetry (ITC) measures the change in temperature when two or more biomolecules bind to each other in a solution. The assay provides the binding affinity of ligands to proteins and the entropy or enthalpy of the reaction. Recombinant KRAS protein (#ab156968, Abcam) was dialyzed into the ITC assay buffer (20mM Tris pH 8.0, 100mM NaCl, 5mM Beta-mercaptoethanol) and concentrated to about 100 μM. During ITC titration twenty 6 μl injections (with intervals of 150 seconds) of 500μM HNB were made into the ITC cell containing 93 μM KRAS. Titration of 500μM HNB into the ITC assay buffer under the same conditions was used as the baseline control. ITC experiments were performed using Affinity ITC instrument (TA Instruments) at 25°C. The data was fitted and analyzed using NanoAnalyze software provided by TA Instruments. […]
(§4) bioRxiv preprint doi: https://doi.org/10.1101/2025.02.17.638454; this version posted February 22, 2025. The copyright holder for this preprint (which was not certified by peer review) is the author/funder, who has granted bioRxiv a license to display the preprint in perpetuity. It is made available under aCC-BY 4.0 International license. […]

HNB = test: ITC of HNB into assay buffer (self-interaction, baseline control); type: binding; details: 500 µM HNB into ITC assay buffer, 25°C
Description: as §3, §4

-TDS (recombinant KRAS protein): -0.7 ± 1.5 kcal/mol
DH (recombinant KRAS protein): -4 ± 2 kcal/mol
Sequence: MKTQLGAVKGFLHV [HNB]
phosphorylation of MEK1/2, ERK1/2 and p90RSK ([1]; D458 (wild type KRAS), doxycycline-induced HNB, 1 μg/mL Dox 48 h, n=3, unpaired t-test): significantly dampened the phosphorylation
ERK1/2 phosphorylation ([1]; D458, ectopic (doxycycline-inducible) expression, HNB vs mutant, Figure 5L): significantly diminished ERK1/2 phosphorylation
phosphorylation of MEK1/2, ERK1/2 and p90RSK [2]: significantly dampened the phosphorylation
HNB self-interaction (HNB): not detected
